ChEMBL document CHEMBL5233272, “Nimbolide, a Neem Limonoid, Is a Promising Candidate for the Anticancer Drug Arsenal” (J Med Chem, 2021)

Legend:
[1] = Drug concentration in athymic Nu/Nu mouse tumor xenografted with human HCT-116 cells transfected with luciferase at 20 mg/kg, ip administered daily for 10 days by HPLC analysis; assay type: ADME, organism-based, Neoplasm; details: time 10 day, read-out: Drug uptake
[2] = Cmax in mouse at 3 mg/kg, po measured after 2 hrs by LC-MS/MS analysis; assay type: ADME, organism-based; design: dose 3 mg/kg, time 2 hrs, route po; details: in vivo
[3] = Drug concentration in athymic Nu/Nu mouse plasma xenografted with human HCT-116 cells transfected with luciferase at 5 mg/kg, ip administered daily for 10 days by HPLC analysis; assay type: ADME, organism-based; details: time 10 day, read-out: Drug uptake
[4] = Oral bioavailability in Sprague-Dawley rat at 30 mg/kg measured upto 72 hrs; assay type: ADME, organism-based; details: in vivo
[5] = Acute toxicity in ip dosed rat assessed as lethal dose; assay type: organism-based; details: in vivo
[6] = Acute toxicity in ip dosed Swiss albino mouse assessed as lethal dose; assay type: organism-based; details: in vivo
[7] = Acute toxicity in ip dosed Syrian golden hamster assessed as lethal dose; assay type: organism-based, Mesocricetus auratus; details: in vivo
[8] = Drug concentration in athymic Nu/Nu mouse plasma xenografted with human HCT-116 cells transfected with luciferase at 20 mg/kg, ip administered daily for 10 days by HPLC analysis; assay type: ADME, organism-based; details: time 10 day, read-out: Drug uptake
[9] = Oral bioavailability in Sprague-Dawley rat at 10 mg/kg measured upto 72 hrs; assay type: ADME, organism-based; details: in vivo
[10] = Drug concentration in athymic Nu/Nu mouse tumor xenografted with human HCT-116 cells transfected with luciferase at 5 mg/kg, ip administered daily for 10 days by HPLC analysis; assay type: ADME, organism-based, Neoplasm; details: time 10 day, read-out: Drug uptake
[11] = Acute toxicity in iv dosed Swiss albino mouse assessed as lethal dose; assay type: organism-based; details: in vivo
[12] = Oral bioavailability in Sprague-Dawley rat at 50 mg/kg measured upto 72 hrs; assay type: ADME, organism-based; details: in vivo

COC(=O)C[C@H]1[C@]2(C)C3=C(C)[C@H](c4ccoc4)C[C@H]3O[C@@H]2[C@@H]2OC(=O)[C@]3(C)C=CC(=O)[C@@]1(C)[C@@H]23 [NIMBOLIDE]
concentration at 240 h [1]: 868 ng/g | Cmax [2]: 780 nM | concentration at 240 h [3]: 222 ng/mL | bioavailability [4]: 1.76% | LD50 [5]: 600 mg/kg | LD50 [6]: 225 mg/kg | LD50 [7]: 500 mg/kg | concentration at 240 h [8]: 409 ng/mL | bioavailability [9]: 2.72% | concentration at 240 h [10]: 345 ng/g | LD50 [11]: 24 mg/kg | bioavailability [12]: 3.06%
